# Laboratory results reported in patent EP2737897A2, “Anti-inflammatory botanical products for the treatment of metabolic syndrome and diabetes” (Metaproteomics, LLC, priority 2005, dated 2007).
# Like-named read-outs stand apart in the source and are kept apart here. Marks after values point to notes of the source that are not given here.
# Assays:
# PGE2 synthesis = test: cells; format: cell-based, murine; conditions: for IC50: Mus musculus
# [1] = system: adiponectin secretion in LPS/3T3-L1 adipocytes; test: Adiponectin secretion in the lipopolysaccharide/3T3-L1 adipocyte model (Example 26); conditions: 100 ng LPS/ml; for % Stimulation (maximum, adiponectin secretion): NS = not significantly different from the LPS control
# [2] = system: IL-6 secretion in LPS/3T3-L1 adipocytes; test: IL-6 secretion in the lipopolysaccharide/3T3-L1 adipocyte model (Example 26); format: cell-based, murine; conditions: 100 ng LPS/ml
# 3T3-L1 adipocytes = test: Lipogenesis in 3T3-L1 adipocytes, Oil Red O or BODIPY staining; format: cell-based, murine
# NF-kBp65 = NF-kBp65 nuclear translocation in TNFα-treated D40 3T3-L1 adipocytes, TransAM ELISA (Example 32); format: cell-based, murine; conditions: 2.5 and 5.0 µg/ml; three or 24 hours following TNFα
# Procedure: ELISA - 3T3-L1 adipocytes were maintained in growth media for 40 days following differentiation. Nuclear NF-kBp65 was determined using the TransAM™ NF-kB kit from Active Motif (Carlsbad, CA) was used with no modifications. […] Protein assay - Nuclear protein was quantified using the Active Motif Fluorescent Protein Quantificantion Kit. Statistical Analysis - Comparisons were performed using a one-tailed Student's t-test. The probability of a type I error was set at the nominal five percent level.
# NF-κB = NF-κB DNA binding of nuclear extracts of LPS-stimulated RAW 264.7 cells, TransAM NF-κB kit (Example 9); format: cell-based, murine; conditions: MgRIAA 55 and 14 µg/ml, parthenolide 80 µM, LY294002 25 µM; LPS 1 µg/ml 4 h
# COX-2 protein expression = test: Western blot of COX-2 protein expression in LPS-stimulated RAW 264.7 cells (Example 8); format: cell-based, murine; conditions: 20 hours stimulation with LPS; compared to DMSO solvent control
# [3] = system: adiponectin secretion from insulin-resistant 3T3-L1 adipocytes; test: cells; conditions: Mus musculus
# [4] = system: adiponectin secretion from insulin-resistant 3T3-L1 adipocytes
# [5] = system: IL-6 secretion from insulin-resistant 3T3-L1 adipocytes; test: IL-6 secretion from insulin-resistant 3T3-L1 adipocytes; format: cell-based, murine; conditions: Mus musculus
# [6] = system: interleukin-6 secretion from TNFα-treated 3T3-L1 adipocytes; test: Interleukin-6 secretion from TNFα-treated 3T3-L1 adipocytes; format: cell-based, murine; conditions: Mus musculus, 3T3-L1, read-out: IL-6 Index
# [7] = system: adiponectin secretion from TNFα-treated 3T3-L1 adipocytes; test: Adiponectin secretion from TNFα-treated 3T3-L1 adipocytes; conditions: 10 ng TNFα/ml (Table 9)
# [8] = system: resistin secretion from insulin-resistant 3T3-L1 adipocytes; test: cells; conditions: Mus musculus, 3T3-L1, read-out: Resistin Index
# Procedure: Resistin Assay - The amount of resistin secreted into the medium was quantified using the Quantikine® Mouse Resistin Immunoassay kit with no modifications (R&D Systems, Minneapolis, MN). […] All supernatant media samples were diluted 1:20 with dilution media supplied by the manufacturer before assay.
# Statistical Calculations and Interpretation - All assays were preformed in duplicate. […] Differences among the doses were determined using the Student's t-test without correction for multiple comparisons; the nominal five percent probability of a type I error (one-tail) was selected.
# [9] = RAW264.7, read-out: Relative IC50
# [10] = 3T3-L1, read-out: Adiponectin Index
compound,measurement,setting,value
Oc1ccc(C=Cc2cc(O)cc(O)c2)cc1 [Resveratrol],IC50,PGE2 synthesis; RAW264.7,5.8 µg/mL
same,IC50,PGE2 synthesis; [9],2 to 6 µg/mL
O=c1c(-c2ccc(O)cc2)coc2cc(O)cc(O)c12 [Genistein],Relative Potency,PGE2 synthesis,high
COc1ccc2c(c1)c(CC(=O)O)c(C)n2C(=O)c1ccc(Cl)cc1 [Indomethacin],"% Stimulation (maximum, adiponectin secretion)",[1],9%
same,"% Inhibition (maximum, IL-6 secretion)",[2],53* %
same,activation at 5 µg/mL,"3T3-L1 adipocytes; Mus musculus, 3T3-L1, read-out: increase of nonpolar lipid incorporation relative to the solvent controls",33%
O=c1c(O)c(-c2cc(O)c(O)c(O)c2)oc2cc(O)cc(O)c12 [Myricetin],IC50,PGE2 synthesis; RAW264.7,> 12 µg/mL
same,IC50,PGE2 synthesis; [9],> 12 µg/mL
CC(C)Cc1ccc(C(C)C(=O)O)cc1 (stereo not drawn) [Ibuprofen],Concentration (of maximum stimulation of adiponectin secretion),[1],0.625 µg/mL
same,"% Stimulation (maximum, adiponectin secretion)",[1],22%
same,"% Inhibition (maximum, IL-6 secretion)",[2],54* %
same,Concentration (dose providing the maximum inhibition of IL-6 secretion),[2],0.625 µg/mL
CCc1ccc(CCOc2ccc(CC3SC(=O)NC3=O)cc2)nc1 (stereo not drawn) [Pioglitazone],"% Stimulation (maximum, adiponectin secretion)",[1],12%
same,"% Inhibition (maximum, IL-6 secretion)",[2],63* %
same,amount of nuclear NF-kBp65,NF-kBp65,did not inhibit
O=c1c(O)c(-c2ccc(O)c(O)c2)oc2cc(O)cc(O)c12 [Quercetin],Relative Potency,PGE2 synthesis,high
O=C(O)c1ccccc1O [Salicylic acid],Concentration (of maximum stimulation of adiponectin secretion),[1],173 µg/mL
same,"% Stimulation (maximum, adiponectin secretion)",[1],failed to induce adiponectin secretion
same,Concentration (dose providing the maximum inhibition of IL-6 secretion),[2],50.0 µg/mL
same,IL-6 Index (maximum inhibition),[2]; [IL-6Test - IL-6Control]/[IL-6LPS - IL-6Control],0.52*
Oc1cc(O)c2c(c1)OC(c1ccc(O)c(O)c1)C(O)C2 (stereo not drawn) [Catechin],IC50,PGE2 synthesis; RAW264.7,> 12 µg/mL
same,IC50,PGE2 synthesis; [9],> 12 µg/mL
C[C@@H]1O[C@@H](OC[C@H]2O[C@@H](Oc3c(-c4ccc(O)c(O)c4)oc4cc(O)cc(O)c4c3=O)[C@H](O)[C@@H](O)[C@@H]2O)[C@H](O)[C@H](O)[C@H]1O [Rutin],IC50,PGE2 synthesis; RAW264.7,> 12 µg/mL
same,IC50,PGE2 synthesis; [9],> 12 µg/mL
COc1ccc2cc3[n+](cc2c1OC)CCc1cc2c(cc1-3)OCO2 [Berberine],IC50,PGE2 synthesis; RAW264.7,3.3 µg/mL
same,IC50,PGE2 synthesis; [9],2 to 6 µg/mL
CC(=O)Oc1ccccc1C(=O)O [Aspirin],Concentration (of maximum stimulation of adiponectin secretion),[1],113 µg/mL
same,"% Stimulation (maximum, adiponectin secretion)",[1],failed to induce adiponectin secretion
same,Concentration (dose providing the maximum inhibition of IL-6 secretion),[2],25.0 µg/mL
O=c1c(O)c(-c2ccccc2)oc2cc(O)cc(O)c12 [Galangin],Relative Potency,PGE2 synthesis,high
C=C1C(=O)O[C@@H]2[C@H]3O[C@]3(C)CC/C=C(\C)CC[C@@H]12 [Parthenolide],NF-κB DNA binding,NF-κB,significant reduction
same,reduction in COX-2 protein expression,COX-2 protein expression,22.5%
"CC(C)CCC1=C(O)C(CCC(C)C)(CCC(C)C)C(=O)C(C(=O)C(C)C)=C1O [Hexahydrocolupulone (HHCL), Hexahydrocolupulone]",fold induction at 6.25 µg/mL,[3]; [10],1.05
same,fold induction at 25 µg/mL,[3]; [10],1.62
same,fold induction at 50 µg/mL,[3]; [10],1.65
same,maximal fold induction,"[3]; 3T3-L1, read-out: Maximum Adiponectin Secretion",1.83
same,EC50,"[3]; 3T3-L1, read-out: Test Material at Half Maximal Secretion",3.2 µg/mL
same,Adiponectin Index,[4]; 3t3-l1 adipocytes,1.71#
same,adipogenic response (lipid content relative to solvent control),"3T3-L1 adipocytes; hops compounds 10, 5, 4 or 2 µg/ml, spent hops 50 µg/ml, positive controls indomethacin 5.0 and troglitazone […]",failed to elicit a lipogenic response greater than the solvent controls
same,activity at 6.25 µg/mL,"[5]; 3T3-L1, 6.25 µg/ml, indexed to insulin only control, read-out: IL-6 Index",100%
same,activity at 25 µg/mL,"[5]; 3T3-L1, 25.0 µg/ml, indexed to insulin only control, read-out: IL-6 Index",119%
same,activity at 50 µg/mL,"[5]; 3T3-L1, 50.0 µg/ml, indexed to insulin only control, read-out: IL-6 Index",277%
CN(C)C(=N)N=C(N)N [Metformin],activity at 1 µg/mL,[6],91%
same,activity at 5 µg/mL,[6],96%
same,activity at 10 µg/mL,[6],78%
same,activity at 50 µg/mL,[6],78%
same,activity at 50 µg/mL,"3T3-L1 adipocytes; Mus musculus, 3T3-L1, read-out: lipogenic index (observed)",79%
c1cc2c(cc1[C@H]1OC[C@H]3[C@@H]1CO[C@@H]3c1ccc3c(c1)OCO3)OCO2 [Sesamin],IC50,PGE2 synthesis; RAW264.7,> 12 µg/mL
same,IC50,PGE2 synthesis; [9],> 12 µg/mL
O=c1c(O)c(-c2ccc(O)cc2)oc2cc(O)cc(O)c12 [Keampferol],IC50,PGE2 synthesis; RAW264.7,4.3 µg/mL
same,IC50,PGE2 synthesis; [9],2 to 6 µg/mL
Cc1c(C)c2c(c(C)c1O)CCC(C)(COc1ccc(CC3SC(=O)NC3=O)cc1)O2 (stereo not drawn) [Troglitazone],Concentration (of maximum adiponectin secretion),[7],0.625 µg/mL
same,activity at 1 µg/mL,[6],66%
same,activity at 0.625 µg/mL,[8],89%
same,activity at 5 µg/mL,[8],143%
same,EC50,"[3]; 3T3-L1, read-out: Test Material at Half Maximal Secretion, estimated from the slope of Hofstee plots",0.085 µg/mL
same,Concentration (of maximum stimulation of adiponectin secretion),[1],0.625 µg/mL
same,"% Stimulation (maximum, adiponectin secretion)",[1],15%
same,"% Inhibition (maximum, IL-6 secretion)",[2],69* %
same,Concentration (dose providing the maximum inhibition of IL-6 secretion),[2],10.0 µg/mL
same,concentration at which maximal adiponectin secretion was observed,[4]; of the four doses tested,2.5 µg/mL
same,activity at 0.625 µg/mL,"[5]; 3T3-L1, read-out: IL-6 Index",100%
same,activity at 5 µg/mL,"[5]; 3T3-L1, read-out: IL-6 Index",131%
